Data from PubChem BioAssay AID274 (DTP/NCI, 2004).
Toxic doses and inconclusive results are not listed.

System: BDF1 mice, Lewis lung carcinoma iv, survival T/C
Experiment: NCI In Vivo Anticancer Drug Screen. Data for tumor model Lewis Lung Carcinoma (intravenous) in B6D2F1 (BDF1) mice
Details: endpoint: median survival time, higher = longer survival
Procedure: The antitumor activity of compounds was measured in mice bearing transplantable tumors. Survival or tumor size were measured and the results are expressed as the measurement made in the treated group (T) divided by the measurement made in the vehicle treated control group (C). The tumor model used in this assay is Lewis Lung Carcinoma (intravenous) in B6D2F1 (BDF1) mice

## COC(=O)Nc1cccc(-c2nc3ccc(NC(=O)OC)cc3c(=O)n2-c2ccccc2)c1
dose: 8.0 mg/kg/injection, schedule: Q01DX009 (ip), vehicle: Klucel (hydroxypropylcellulose) (HPC)
  T/C: 95 % of control
dose: 8.0 mg/kg/injection, schedule: Q01DX009 (ip), vehicle: saline
  T/C: 92 % of control
dose: 16.0 mg/kg/injection, schedule: Q01DX009 (ip), vehicle: Klucel (hydroxypropylcellulose) (HPC)
  T/C: 92 % of control
dose: 16.0 mg/kg/injection, schedule: Q01DX009 (ip), vehicle: saline
  T/C: 97 % of control
dose: 32.0 mg/kg/injection, schedule: Q01DX009 (ip), vehicle: Klucel (hydroxypropylcellulose) (HPC)
  T/C: 99 % of control
dose: 32.0 mg/kg/injection, schedule: Q01DX009 (ip), vehicle: saline
  T/C: 109 % of control
dose: 64.0 mg/kg/injection, schedule: Q01DX009 (ip), vehicle: Klucel (hydroxypropylcellulose) (HPC)
  T/C: 109 % of control
dose: 64.0 mg/kg/injection, schedule: Q01DX009 (ip), vehicle: saline
  T/C: 108 % of control
dose: 128.0 mg/kg/injection, schedule: Q01DX009 (ip), vehicle: saline
  T/C: 115 % of control

## CN1N=C(N)c2cn(C3OC(COP(=O)(O)O)C(O)C3O)c3ncnc1c23 (centres undefined)
dose: 0.39 mg/kg/injection, schedule: Q01DX009 (ip), vehicle: water
  T/C: 100 % of control
dose: 0.78 mg/kg/injection, schedule: Q01DX009 (ip), vehicle: water
  T/C: 92 % of control
dose: 1.56 mg/kg/injection, schedule: Q01DX009 (ip), vehicle: water
  T/C: 86 % of control
dose: 3.12 mg/kg/injection, schedule: Q01DX009 (ip), vehicle: water
  T/C: 93 % of control
dose: 6.25 mg/kg/injection, schedule: Q01DX009 (ip), vehicle: water
  T/C: 99 % of control
dose: 12.5 mg/kg/injection, schedule: Q01DX009 (ip), vehicle: water
  T/C: 99 % of control

## O=C1c2ccccc2C(=O)c2c(NCCNCCO)ccc(NCCNCCO)c21
dose: 1.0 mg/kg/injection, schedule: Q01DX005 (ip), vehicle: saline with Tween-80
  T/C: 119 % of control
dose: 1.0 mg/kg/injection, schedule: Q01DX009 (ip), vehicle: saline with Tween-80
  T/C: 100 % of control
dose: 2.0 mg/kg/injection, schedule: Q01DX005 (ip), vehicle: saline
  T/C: 102 % of control
dose: 2.0 mg/kg/injection, schedule: Q01DX009 (ip), vehicle: saline with Tween-80
  T/C: 110 % of control
dose: 4.0 mg/kg/injection, schedule: Q01DX005 (ip), vehicle: saline with Tween-80
  T/C: 109 % of control
dose: 4.0 mg/kg/injection, schedule: Q01DX009 (ip), vehicle: saline with Tween-80
  T/C: 102 % of control

## CS(C)=O
dose: 1.5 grams/kg/injection, schedule: Q01DX009 (ip), vehicle: saline
  T/C: 98 % of control
dose: 3.0 grams/kg/injection, schedule: Q01DX009 (ip), vehicle: saline
  T/C: 96 % of control
dose: 6.0 grams/kg/injection, schedule: Q01DX009 (ip), vehicle: saline
  T/C: 96 % of control

## CC12C(=O)C=CCC1=CCC1C2CCC2(O)C(=O)OC3(C)C4CC5(C)C(COC16OC23C5C6=O)C(=O)O4 (centres undefined)
dose: 25.0 mg/kg/injection, schedule: Q01DX009 (ip), vehicle: Klucel (hydroxypropylcellulose) (HPC)
  T/C: 101 % of control
dose: 50.0 mg/kg/injection, schedule: Q01DX009 (ip), vehicle: Klucel (hydroxypropylcellulose) (HPC)
  T/C: 100 % of control
dose: 100.0 mg/kg/injection, schedule: Q01DX009 (ip), vehicle: Klucel (hydroxypropylcellulose) (HPC)
  T/C: 105 % of control

## NC(=O)c1csc(C2OC(CO)C(O)C2O)n1 (centres undefined)
dose: 25.0 mg/kg/injection, schedule: Q01DX009 (ip), vehicle: water
  T/C: 326 % of control
dose: 50.0 mg/kg/injection, schedule: Q01DX009 (ip), vehicle: water
  T/C: 326 % of control
dose: 100.0 mg/kg/injection, schedule: Q01DX009 (ip), vehicle: water
  T/C: 326 % of control
dose: 200.0 mg/kg/injection, schedule: Q01DX009 (ip), vehicle: water
  T/C: 326 % of control
dose: 330.0 mg/kg/injection, schedule: Q01DX009 (ip), vehicle: water
  T/C: 452 % of control
dose: 400.0 mg/kg/injection, schedule: Q01DX009 (ip), vehicle: water
  T/C: 326 % of control
dose: 500.0 mg/kg/injection, schedule: Q01DX009 (ip), vehicle: water
  T/C: 452 % of control
dose: 750.0 mg/kg/injection, schedule: Q01DX009 (ip), vehicle: water
  T/C: 452 % of control

## CCN(CC)CCOCCO
dose: 25.0 mg/kg/injection, schedule: Q01DX009 (ip), vehicle: saline
  T/C: 110 % of control
dose: 50.0 mg/kg/injection, schedule: Q01DX009 (ip), vehicle: saline
  T/C: 99 % of control
dose: 100.0 mg/kg/injection, schedule: Q01DX009 (ip), vehicle: saline
  T/C: 101 % of control
dose: 200.0 mg/kg/injection, schedule: Q01DX009 (ip), vehicle: saline
  T/C: 99 % of control
